The text below walks through data of patent publication US20130029942A1, “COMPOUNDS AND THERAPEUTICAL USES THEREOF” (Myrexis, Inc., priority 2003, published 2013).

This experiment has as its system T-47D cells. Briefly: Caspase cascade activation / induction of apoptosis in T-47D cells (fluorogenic N-(Ac-DEVD)-N'-ethoxycarbonyl-R110 substrate). The experiment is classed as cell-based, human. The note with it: Homo sapiens, T47D, T-47D.
Setting [1] is: 48 hr, read-out: T-47D (48 hr) EC50.
[2] abbreviates: 24 hr, read-out: T-47D (24 hr) EC50.

Like-named read-outs stand apart in the source and are kept apart here.

The term EC50 denotes the midpoint of the concentration-response curve.

`COc1ccc(N(C)c2nc(CF)nc3ccccc23)cc1` [Example 55, (2-Fluoromethyl-quinazolin-4-yl)-(4-methoxy-phenyl)-methyl-amine]: under setting [1], the EC50 was 1 nM. Same read-out and setting: in the case of `COc1ccc(N(C)c2nc(Cl)nc3ccc(C)cc23)cc1` [Example 56, (2-Chloro-6-methyl-quinazolin-4-yl)-(4-methoxy-phenyl)-methyl-amine] it was 5 nM; in that of `COc1ccc(N(C)c2nc(Cl)nc3cc(C)ccc23)cc1` [Example 57, (2-Chloro-7-methyl-quinazolin-4-yl)-(4-methoxy-phenyl)-methyl-amine], 432 nM; in that of `COc1ccc(N(C)c2nc(Cl)nc3cccc(C)c23)cc1` [Example 58, (2-Chloro-5-methyl-quinazolin-4-yl)-(4-methoxy-phenyl)-methyl-amine], 1 nM. On to `COc1ccc(N(C)c2nc(Cl)nc3c(C)cccc23)cc1` [Example 59, (2-Chloro-8-methyl-quinazolin-4-yl)-(4-methoxy-phenyl)-methyl-amine], for which the EC50 under setting [1] turned out to be 11 nM. Same read-out and setting: in the case of `COc1ccc(N(C)c2nc(Cl)nc3ccc(Cl)cc23)cc1` [Example 60, (2,6-Dichloro-quinazolin-4-yl)-(4-methoxy-phenyl)-methyl-amine] it was 13 nM; in that of `COc1ccc(N(C)c2nc(N(C)c3ccc(OC)cc3)c3cc(Cl)ccc3n2)cc1` [Example 61, 6-Chloro-N^2,N^4-bis-(4-methoxy-phenyl)-N^2,N^4-dimethyl-quinazoline-2,4-diamine], 4050 nM. For the molecule `COc1ccc(N(C)c2nc(Cl)nc3cc(Cl)ccc23)cc1` [Example 62, (2,7-Dichloro-quinazolin-4-yl)-(4-methoxy-phenyl)-methyl-amine], under setting [1], the EC50 is 316 nM. On the same count and under the same terms, then `COc1ccc(N(C)c2nc(N(C)c3ccc(OC)cc3)c3c(Cl)cccc3n2)cc1` [Example 63, 5-Chloro-N^2,N^4-bis-(4-methoxy-phenyl)-N^2,N^4-dimethyl-quinazoline-2,4-diamine], with 427 nM; and `COc1ccc(N(C)c2nc(OC(C)C)nc3cccc(Cl)c23)cc1` [Example 64, (5-Chloro-2-isopropoxy-quinazolin-4-yl)-(4-methoxy-phenyl)-methyl-amine], with more than 10000 nM. Turning to `COc1ccc(N(C)c2ccnc3ccccc23)cc1` [Example 66, (4-Methoxy-phenyl)-methyl-(quinolin-4-yl)-amine], the EC50 reads like this: under setting [2], 18 nM; under setting [1], 22 nM. With `CN(c1ccc2c(c1)OCO2)c1nc(Cl)nc2ccccc12` [Example 67, (2-Chloro-quinazolin-4-yl)-(3,4-methylenedioxyphenyl)-methyl-amine], the EC50 under setting [1] was determined as 38 nM. On the same count and under the same terms, in the case of `COc1ccc(N(C)c2nc(Cl)nc3ccccc23)cc1OC` [Example 68, (2-Chloro-quinazolin-4-yl)-(3,4-dimethoxy-phenyl)-methyl-amine] it was 4 nM; in that of `CN(c1ccc(Oc2ccccc2)cc1)c1nc(Cl)nc2ccccc12` [Example 69, (2-Chloro-quinazolin-4-yl)-(4-phenoxy-phenyl)-methyl-amine], more than 1000 nM; in that of `CCCOc1ccc(N(C)c2nc(Cl)nc3ccccc23)cc1` [Example 70, (2-Chloro-quinazolin-4-yl)-(4-propoxy-phenyl)-methyl-amine], 42 nM. Same read-out and setting: in the case of `COc1ccc(Oc2ncnc3ccccc23)cc1` [Example 71, 4-(4-Methoxy-phenoxy)-quinazoline] it was 2260 nM. `COc1ccc(N(C)c2nc(CCl)nc3ccccc23)cc1` [Example 73, (2-Chloromethyl-quinazolin-4-yl)-(4-methoxy-phenyl)-methyl-amine]: the EC50 was 679 nM under setting [2] and 543 nM under setting [1]. As for `COc1ccc(N(C)c2nc(CO)nc3ccccc23)cc1` [Example 76], the EC50 reads like this: under setting [2], 7 nM; under setting [1], 8 nM. For `COc1ccc(N(C)c2nc(CN(C)C)nc3ccccc23)cc1` [Example 77, (2-Dimethylaminomethyl-quinazolin-4-yl)-(4-methoxy-phenyl)-methyl-amine] the same measures were 700 nM and 2110 nM.

On to `Cc1nc(Nc2ccc(OC(F)F)cc2)c2ccccc2n1` [Example 78, (4-Difluoromethoxy-phenyl)-(2-methyl-quinazolin-4-yl)-amine], for which the EC50 under setting [2] is more than 10000 nM. On the same count and under the same terms, then `COc1ccc(Nc2nc(C)nc3ccccc23)cc1F` [Example 79, (3-Fluoro-4-methoxy-phenyl)-(2-methyl-quinazolin-4-yl)-amine], with more than 10000 nM; and `Cc1nc(Nc2ccc(OC(C)C)cc2)c2ccccc2n1` [Example 80, (4-Isopropoxy-phenyl)-(2-methyl-quinazolin-4-yl)-amine], with 5750 nM. `CCc1ccc(Nc2nc(C)nc3ccccc23)cc1` [Example 81, (4-Ethyl-phenyl)-(2-methyl-quinazolin-4-yl)-amine]: the EC50 under setting [2] is more than 10000 nM. For `COc1cc(OC)c(Nc2nc(C)nc3ccccc23)c(OC)c1` [Example 82, (2-Methyl-quinazolin-4-yl)-(2,4,6-trimethoxy-phenyl)-amine], the EC50 under setting [2] was more than 10000 nM. Take `COc1ccc(N(C)c2nc(-c3ccccc3)nc3ccccc23)cc1` [Example 83, (4-Methoxy-phenyl)-(2-phenyl-quinazolin-4-yl)-methyl-amine]: the EC50 under setting [1] turned out to be 168 nM. On to `Cc1nc(N(C)c2ccc(OC(F)F)cc2)c2ccccc2n1` [Example 84, (4-Difluoromethoxy-phenyl)-(2-methyl-quinazolin-4-yl)-methyl-amine], for which, under setting [2], the EC50 came out at 8 nM. On the same count and under the same terms, in the case of `COc1ccc(N(C)c2nc(C)nc3ccccc23)cc1F` [Example 85, (3-Fluoro-4-methoxy-phenyl)-(2-methyl-quinazolin-4-yl)-methyl-amine] it was 2 nM; in that of `Cc1nc(N(C)c2ccc(OC(C)C)cc2)c2ccccc2n1` [Example 86, (4-Isopropoxy-phenyl)-(2-methyl-quinazolin-4-yl)-methyl-amine], 41 nM. On the same count and under the same terms, then `CCc1ccc(N(C)c2nc(C)nc3ccccc23)cc1` [Example 87, (4-Ethyl-phenyl)-(2-methyl-quinazolin-4-yl)-methyl-amine], with 25 nM; and `COc1cc(OC)c(N(C)c2nc(C)nc3ccccc23)c(OC)c1` [Example 88, (2-Methyl-quinazolin-4-yl)-(2,4,6-trimethoxy-phenyl)-methyl-amine], with 556 nM. For `COc1ccc(N(C)c2nc(Cl)nc3c(Cl)cccc23)cc1` [Example 89, (2,8-Dichloro-quinazolin-4-yl)-(4-methoxy-phenyl)-methyl-amine], the EC50 under setting [1] came out at 24 nM. With `COc1ccc(N(C)c2nc(Cl)nc3cccc(Cl)c23)cc1` [Example 90, (2,5-Dichloro-quinazolin-4-yl)-(4-methoxy-phenyl)-methyl-amine], the EC50 under setting [2] is 2 nM.

As to `COc1ccc(N(C)c2nc(C)nc3cccc(OC)c23)cc1` [Example 91, (5-Methoxy-2-methyl-quinazolin-4-yl)-(4-methoxy-phenyl)-methyl-amine], the concentration giving a half-maximal response (EC50) under setting [2] stood at 4 nM. On the same count and under the same terms, then `COc1ccc(N(C)c2nc(C)nc3ncccc23)cc1` [Example 92, (4-Methoxy-phenyl)-(2-methyl-pyrido[2,3-d]pyrimidin-4-yl)-methyl-amine], with 16 nM; and `Cc1nc(N(C)c2ccc(O)cc2)c2ccccc2n1` [Example 93, (4-Hydroxy-phenyl)-(2-methyl-quinazolin-4-yl)-methyl-amine], with 65 nM. As for `CCOc1ccc(Nc2nc(Cl)nc3ccccc23)cc1` [Example 94, (2-Chloro-quinazolin-4-yl)-(4-ethoxy-phenyl)-amine], the EC50 under setting [1] is more than 10000 nM. On to `COc1ccc(Nc2nc(C)nc3ccccc23)cn1` [Example 95, (2-Methyl-quinazolin-4-yl)-(6-methoxy-pyridin-3-yl)-amine], for which the EC50 under setting [2] was more than 10000 nM. Still for that read-out and setting: then `COc1ccc(Nc2nc(C)nc3ccccc23)c(F)c1` [Example 96, (2-Fluoro-4-methoxy-phenyl)-(2-methyl-quinazolin-4-yl)-amine], with more than 10000 nM. Turning to `CCOc1ccc(N(C)c2nc(Cl)nc3ccccc23)cc1` [Example 97, (2-Chloro-quinazolin-4-yl)-(4-ethoxy-phenyl)-methylamine], the concentration for a half-maximal effect (EC50) under setting [1] was determined as 5 nM. For the molecule `COc1ccc(N(C)c2nc(C)nc3ccccc23)c(F)c1` [Example 99, (2-Fluoro-4-methoxy-phenyl)-(2-methyl-quinazolin-4-yl)-methyl-amine], the EC50 under setting [2] stood at 4 nM. In the case of `Cc1nc(N(C)c2ccc([N+](=O)[O-])cc2)c2ccccc2n1` [Example 100, (2-Methyl-quinazolin-4-yl)-(4-nitro-phenyl)-methyl-amine], under setting [2], the EC50 was found to be 474 nM.

As for `Cc1nc(N(C)c2ccc(N)cc2)c2ccccc2n1` [Example 101, (4-Amino-phenyl)-(2-methyl-quinazolin-4-yl)-methyl-amine], the half-maximal effective concentration (EC50) under setting [2] is 175 nM. For the molecule `Cc1nc(N(C)c2ccc(N=[N+]=[N-])cc2)c2ccccc2n1` [Example 102, (4-Azido-phenyl)-(2-methyl-quinazolin-4-yl)-methyl-amine], the EC50 runs as follows: under setting [2], 5 nM; under setting [1], 16 nM. For `Cc1nc(N(C)c2c(Br)cc(N)cc2Br)c2ccccc2n1` [Example 103, (4-Amino-2,6-dibromo-phenyl)-(2-methyl-quinazolin-4-yl)-methyl-amine], the EC50 under setting [2] came to 552 nM. On to `Cc1nc(N(C)c2ccc(N)cc2Br)c2ccccc2n1` [Example 104, (4-Amino-2-bromo-phenyl)-(2-methyl-quinazolin-4-yl)-methyl-amine], for which the EC50 under setting [2] came to 134 nM. On the same count and under the same terms, then `Cc1nc(N(C)c2ccc(N(C)C)cc2)c2ccccc2n1` [Example 105, (4-Dimethylamino-phenyl)-(2-methyl-quinazolin-4-yl)-methyl-amine], with 2 nM. Still for that read-out and setting: then `CCOc1ccc(Nc2nc(C)nc3ccccc23)cc1` [Example 106, (4-Ethoxy-phenyl)-(2-methyl-quinazolin-4-yl)-amine], with more than 10000 nM; and `CCOc1ccc(N(C)c2nc(C)nc3ccccc23)cc1` [Example 107, (4-Ethoxy-phenyl)-(2-methyl-quinazolin-4-yl)-methyl-amine], with 5 nM.
